Columns and labels:
[1] = system: mice with cyclophosphamide-induced alopecia areata; experiment: Hair length (vernier caliper) and hair weight (balance) after the final administration; type: in vivo; conditions: gavage once daily, after final administration (Day 28); for Hair length: CP-induced alopecia areata mice; for Hair weight: regrown hair of depilated area
Method: (§1) 60 male C57/BL-6 mice aged 6-8 weeks were evenly divided into 6 groups with 10 mice per group. These groups were: a control group, a model group, a CE (15 mg/kg) group, a CE (30 mg/kg) group, a BT (1 mg/kg) group, and a CE+BT (15+0.5 mg/kg) group. After 1 week of normal feeding, the dorsal hair of the mice was shaved using a depilatory device to prepare the skin (2×3 cm^2). Then, depilatory cream was applied to the prepared skin area to ensure complete removal of the hair on the back of the mice. From the day after depilation, each group of mice was administered once daily by gavage.
(§2) On Day 9 of administration in the aforementioned experiment, cyclophosphamide (abbreviated as CP) was intraperitoneally injected to each mouse in the model group (not administered with CE and/or BT), the CE (15 mg/kg) group, the CE (30 mg/kg) group, the BT (1 mg/kg) group, and the CE+BT (15+0.5 mg/kg) group to establish the AA model. The method for establishing the model is described in the literature: "Effect of CeO2 Nanoenzyme on Hair Growth of Mice with Cyclophosphamide-Induced Alopecia Areata", PENG Xinxin et al., J Shanxi Med Univ, Feb. 2024, Vol. 55, No. 2, p.192.
After the final administration (on Day 28), the length of dorsal hair of the mice in each group was measured using a vernier caliper. Subsequently, the regrown hair in the original depilated area was removed using a depilatory device, and was weighed using a balance. Table 2 Effects of CE, BT and CE+BT on hair length and hair weight in the mice with cyclophosphamide-induced alopecia areata

C57/BL-6 mice = experiment: Hair growth of depilated mice after 9 days of gavage administration (dorsal images, hair score by IMAGE J); type: in vivo; conditions: first 9 days after depilation
Method: as §1
The substances to be administered were prepared as follows: The aqueous solution of 0.5% sodium carboxymethylcellulose: First, 0.5 g of sodium carboxymethylcellulose powder was added to 100 mL of distilled water, and then the mixture was placed in a water bath and heated at 60-70 °C. […]
Images of the dorsal region of the mice were captured at key time points of hair growth (i.e. Day 0 and Day 9), respectively. In addition, the gray values in the depilated areas on the dorsal region of the mice in Figure a were analyzed using IMAGE J software (National Institutes of Health, USA) to obtain hair scores. In Figure b, the hair scores represent the quantified gray values of the hair on the back skin of the mice.

[2] = system: mice with cyclophosphamide-induced alopecia areata; experiment: Preventive effect on hair loss in cyclophosphamide-induced alopecia areata (dorsal images); type: in vivo; conditions: gavage, Day 7 after CP injection, versus model group
Method: as §2
Whether the model has been successfully established was determined by observing the hair loss in each group of mice, wherein the onset of hair loss indicated the successful model establishment.
Images of the dorsal region of the mice were captured on Day 9 of administration (Day 0 after CP injection), Day 14 (Day 5after CP injection), and Day 16 (Day 7 after CP injection). In Figure 2, gavage administration was used for administering CE and/or BT to the mice in the CE (15 mg/kg) group, the CE (30 mg/kg) group, the BT (1 mg/kg) group, and the CE+BT (15+0.5 mg/kg) group; and intraperitoneal injection was used for administering CP to the mice in the model group, the CE (15 mg/kg) group, the CE (30 mg/kg) group, the BT (1 mg/kg) group, and the CE+BT (15+0.5 mg/kg) group. […]

[3] = system: JAK3/STAT3 signaling pathway; experiment: Western blotting of p-JAK3/JAK3 and p-STAT3/STAT3 in mouse skin tissue; type: in vivo, mice; conditions: Western blot gray values, versus model group
Method: The expression levels of p-JAK3/JAK3 and p-STAT3/STAT3 proteins were detected by Western blotting using the half of the skin samples that were stored in the freezer at -80°C as described in Example 2. • p-JAK3: purchased from Absin, Cat No.: abs139988; • JAK3: purchased from Absin, Cat No.: abs115170; • p-STAT3: purchased from Absin, Cat No.: abs130919; • STAT3: purchased from Absin, Cat No.: abs155916.
The mouse skin samples stored at -80°C were taken out. 50 mg of skin tissue was cut with surgical scissors from each sample and respectively placed into 2 mL EP tubes. 500 µL of RIPA lysis buffer (available from Servicebio, Cat No.: G2002-100ML) (containing 5µL of protease inhibitor PMSF, available from Servicebio, Cat No.: G2008-1ML) was added to each EP tube. The skin was then disrupted by a cell grinding rod that is inserted into the 2 mL EP tube. […]
The total protein concentration in the supernatant was determined using a BCA kit (G2026-200T, Servicebio) following the protocol in the instruction manual. […]
The previously prepared resolving gel and stacking gel were clamped onto the main body of the gel-casting apparatus, with the stacking gel on the top and the resolving gel on the bottom. […] The gel casting apparatus was then disassembled and placed in the transfer buffer (Cat No.: G2028-1L, available from Servicebio) to be ready for subsequent membrane transfer procedure. […]

In the case of CCS(=O)(=O)N1CC(CC#N)(n2cc(-c3ncnc4[nH]ccc34)cn2)C1 [BT, baricitinib], the Hair length ([1]; BT 1 mg/kg) is reported as 6.51±0.61 mm and the Hair weight ([1]; BT 1 mg/kg) is reported as 38.62 ± 6.02 mg.

For C[C@@H]1CC[C@H]2C(C)(C)[C@H]3C[C@@]12CC[C@@]3(C)O [CE, cedrol], the hair growth (C57/BL-6 mice; CE 15 mg/kg) was “significant hair growth”, the hair growth (C57/BL-6 mice; CE 30 mg/kg) was “significant hair growth” and the hair loss ([2]; CE 15 mg/kg) was “significantly better than that of the model group”. For the same molecule, the hair loss ([2]; CE 30 mg/kg) was “significantly better than that of the model group”, the Hair length ([1]; CE 15 mg/kg) was 5.98±1.22 mm and the Hair weight ([1]; CE 15 mg/kg) was 35.38 ± 6.88 mg. For the same molecule, the Hair length ([1]; CE 30 mg/kg) was 6.78±1.32 mm, the Hair weight ([1]; CE 30 mg/kg) was 43.51 ± 6.45 mg and the “relative viabilities of p-JAK3/JAK3 and p-STAT3/STAT3” value ([3]; CE 15 mg/kg) was “significantly different from that in the model group”. The “relative viabilities of p-JAK3/JAK3 and p-STAT3/STAT3” value ([3]; CE 30 mg/kg) was “significantly different from that in the model group”.

From patent publication EP4799617A1, “PHARMACEUTICAL COMPOSITION HAVING JAK INHIBITORY EFFECT” (Orxes Chinese Medicine (Shanghai) Co., Ltd., priority 2024, dated 2025)
